Data: patent US8106045B2, “2-morpholino-4-pyrimidone compound” (Mitsubishi Tanabe Pharma Corporation, priority 2004, dated 2012)

The molecules below were run against T1, bovine cerebral TPK1 (Bos taurus, UniProt A0A3Q1MT31) (assay: Inhibitory activity against P-GS1 phosphorylation by bovine cerebral TPK1). Details: 41.7 μM [γ-32P] ATP, 25° C. for 2 hours.
T1 construct: bovine cerebral TPK1; from tissue; host or cells: bovine cerebrum (brain)
T1 sequence (A0A3Q1MT31 1-419): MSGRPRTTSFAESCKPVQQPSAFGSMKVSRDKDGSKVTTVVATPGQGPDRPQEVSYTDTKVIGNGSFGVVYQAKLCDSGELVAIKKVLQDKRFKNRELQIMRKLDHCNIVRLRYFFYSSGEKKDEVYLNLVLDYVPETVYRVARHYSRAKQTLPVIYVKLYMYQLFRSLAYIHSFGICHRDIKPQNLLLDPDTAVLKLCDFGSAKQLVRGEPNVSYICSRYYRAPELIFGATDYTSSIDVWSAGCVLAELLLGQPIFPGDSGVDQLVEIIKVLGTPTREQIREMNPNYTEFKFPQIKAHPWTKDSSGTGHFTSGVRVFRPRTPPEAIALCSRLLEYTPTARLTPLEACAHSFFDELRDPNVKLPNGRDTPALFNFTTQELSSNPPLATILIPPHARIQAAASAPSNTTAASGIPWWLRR
Type: biochemical
Procedure: Experiment 1: Inhibitory Activity of the Medicament of the Present Invention Against P-GS1 Phosphorylation by Bovine Cerebral TPK1
A mixture containing 100 mM MES-sodium hydroxide (pH 6.5), 1 mM magnesium acetate, 0.5 mM EGTA, 5 mM B-mercaptoethanol, 0.02% Tween 20, 10% glycerol, 12 μg/ml P-GS1, 41.7 μM [γ-^32P] ATP (68 kBq/ml), bovine cerebral TPK1 and a compound shown in Table (a final mixture contained 1.7% DMSO deriving from a solution of a test compound prepared in the presence of 10% DMSO) was used as a reaction system. The phosphorylation was started by adding ATP, and the reaction was conducted at 25° C. for 2 hours, and then stopped by adding 21% perchloric acid on ice cooling. The reaction mixture was centrifuged at 12,000 rpm for 5 minutes and adsorbed on P81 paper (Whatmann), and then the paper was washed four times with 75 mM phosphoric acid, three times with water and once with acetone. The paper was dried, and the residual radioactivity was measured using a liquid scintillation counter.
`CN(c1ccc([C@H]2CN(c3nc(-c4ccncn4)cc(=O)n3C)CCO2)cc1)[C@@H]1CCOC1` [Compound No. 091, 2-((2S)-2-(4-(N-methyl-N-((3R)-tetrahydrofuran-3yl)amino)phenyl)morpholin-4-yl)-3-methyl-6-(pyrimidin-4-yl)-3H-pyrimidin-4-one] gave an IC50 of 6.1 nM. Molecule `Cn1c(N2CCO[C@@H](c3ccc(OCCCN4CCCC4)cc3)C2)nc(-c2ccncn2)cc1=O` [Compound No. 202, 2-((2S)-2-(4-(3-(pyrrolidin-1-yl)propyloxy)phenyl)morpholine-4-yl)-3-methyl-6-(pyrimidin-4-yl)-pyrimidin-4-one] has an IC50 of 0.43 nM. Molecule `Cn1c(N2CCO[C@@H](c3ccc(C(=O)NCCO)cc3)C2)nc(-c2ccncn2)cc1=O` [Compound No. 210, N-(2-hydroxy-ethyl)-4-[(2S)-4-(1-methyl-6-oxo-1,6-dihydro-[4,4′]bipyrimidinyl-2-yl)-morpholin-2-yl]-benzamide] has an IC50 of 5.4 nM. In the case of `CN(C)CC(=O)Nc1ccc([C@H]2CN(c3nc(-c4ccncn4)cc(=O)n3C)CCO2)cc1` [Compound No. 220, N^2,N^2-Dimethyl-N^1-{4-[(2S)-4-(1-methyl-6-oxo-1,6-dihydro-4,4′-bipyrimidin-2-yl)morpholin-2-yl]phenyl}glycinamide], the IC50 is reported as 0.48 nM. `COC(=O)Nc1ccc([C@H]2CN(c3nc(-c4ccncc4)cc(=O)n3C)CCO2)cc1` [Compound No. 231, Methyl (4-((2S)-4-(3-methyl-4-oxo-6-(pyridin-4-yl)-3H-pyrimidin-2-yl)morpholin-2-yl)-phenyl)carbamate] showed an IC50 of 5.8 nM. Work on `CN(C)C(=O)Nc1ccc([C@H]2CN(c3nc(-c4ccncc4)cc(=O)n3C)CCO2)cc1` [Compound No. 237, 1,1-Dimethyl-3-{4-[4-(1-methyl-6-oxo-4-pyridin-4-yl-1,6-dihydro-pyrimidin-2-yl)-morpholin-2-yl]-phenyl}-urea] yielded an IC50 of 9.7 nM. `Cn1c(N2CCO[C@@H](c3ccc(N4CCC(N5CCCC5)CC4)cc3)C2)nc(-c2ccncc2)cc1=O` [compound 6] showed an IC50 of 3.4 nM. `Cn1c(N2CCO[C@@H](c3ccc(Nc4ccncc4)cc3)C2)nc(-c2ccncc2)cc1=O` [compound 50] showed an IC50 of 4.8 nM. For `Cn1c(N2CCO[C@@H](c3ccc(NC(=O)c4ccccc4)cc3)C2)nc(-c2ccncc2)cc1=O` [compound 70], the IC50 was 5.1 nM. With `Cn1c(N2CCO[C@@H](c3ccc(NC(=O)CN4CCN(c5ccccc5)CC4)cc3)C2)nc(-c2ccncc2)cc1=O` [compound 100] the IC50 was 5.2 nM.
